From ChEMBL document CHEMBL1201862, “PubChem BioAssay data set” (2004)
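Grown in 96-well plates, cells were treated for 48 hours with each compound at five concentrations. Insufficient inhibition: endpoint recorded as highest concentration tested. GI50 = concentration required for 50% inhibition of growth.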 The source made the active and inactive calls. No stated cut-off is given here; in the data, active = GI50 up to about 1.1 µM and inactive = higher.

What was measured:
Experiment in all cases: NCI anticancer screen, dose series, 48 h
[1] = tested on: HCT-15
[2] = tested on: PC-3
[3] = tested on: A498
[4] = tested on: MCF7
[5] = tested on: BT-549
[6] = tested on: NCI-H23
[7] = tested on: U-251
[8] = tested on: SK-MEL-28
[9] = tested on: CAKI-1
[10] = tested on: OVCAR-4
[11] = tested on: SF-268
[12] = tested on: HCC 2998
[13] = tested on: SF-295
[14] = tested on: HCT-116
[15] = tested on: HL-60
[16] = tested on: UACC-62
[17] = tested on: SN12C
[18] = tested on: Malme-3M
[19] = tested on: RXF 393

| Compound | GI50 [1] [µM] | GI50 [2] | GI50 [3] | GI50 [4] | GI50 [5] | GI50 [6] | GI50 [7] | GI50 [8] | GI50 [9] | GI50 [10] | GI50 [11] | GI50 [12] | GI50 [13] | GI50 [14] | GI50 [15] | GI50 [16] | GI50 [17] | GI50 [18] | GI50 [19] |
| --- | --- | --- | --- | --- | --- | --- | --- | --- | --- | --- | --- | --- | --- | --- | --- | --- | --- | --- | --- |
| CCCCCCNC(=O)c1cc(C#Cc2cc(OC)ccc2OC)ccc1OC | 7.48 | 62.1 µM (inactive) | > 100 µM (inactive) | > 100 µM (inactive) | 18.9 µM (inactive) | 47.4 µM (inactive) | > 100 µM (inactive) | 3.04 µM (inactive) | > 100 µM (inactive) | > 100 µM (inactive) | > 100 µM (inactive) | 1.93 µM (inactive) | 51.9 µM (inactive) |  |  |  |  |  |  |
| CCOC(=O)C(=O)C(=O)NN(C)C1=NCCN1 | > 100 | > 100 µM (inactive) |  | > 100 µM (inactive) | > 100 µM (inactive) | > 100 µM (inactive) | > 100 µM (inactive) | > 100 µM (inactive) |  | > 100 µM (inactive) | > 100 µM (inactive) | > 100 µM (inactive) | > 100 µM (inactive) | > 100 µM (inactive) | > 100 µM (inactive) | > 100 µM (inactive) | > 100 µM (inactive) | > 100 µM (inactive) | > 100 µM (inactive) |
| CC1(C)OCC(COC(=O)NCn2cc(-c3ccccc3)nn2)O1 (configuration not stated) | > 100 | > 100 µM (inactive) |  | > 100 µM (inactive) | > 100 µM (inactive) | > 100 µM (inactive) | > 100 µM (inactive) | > 100 µM (inactive) | > 100 µM (inactive) | > 100 µM (inactive) | > 100 µM (inactive) | 26.2 µM (inactive) | > 100 µM (inactive) | > 100 µM (inactive) | > 100 µM (inactive) |  | > 100 µM (inactive) | > 100 µM (inactive) |  |
| Clc1ccc(/C=C/c2nc3ccccc3s2)cc1Cl | > 100 | 1.69 µM (inactive) |  | 15.1 µM (inactive) | 30.1 µM (inactive) | 94 µM (inactive) | 25.7 µM (inactive) | > 100 µM (inactive) | 19.8 µM (inactive) | 15.6 µM (inactive) | 42.8 µM (inactive) | 97.3 µM (inactive) | 28.1 µM (inactive) | 19.5 µM (inactive) | 82 µM (inactive) | 59.2 µM (inactive) | > 100 µM (inactive) | 48.2 µM (inactive) |  |
| Nc1ccn([C@H]2CO[C@@H](CO)[C@@H]2O)c(=O)n1 | > 100 | > 100 µM (inactive) | > 100 µM (inactive) | > 100 µM (inactive) | > 100 µM (inactive) | > 100 µM (inactive) | > 100 µM (inactive) | > 100 µM (inactive) | > 100 µM (inactive) | > 100 µM (inactive) | > 100 µM (inactive) | > 100 µM (inactive) | > 100 µM (inactive) | > 100 µM (inactive) |  | > 100 µM (inactive) | > 100 µM (inactive) |  | > 100 µM (inactive) |
| O=C(/C=C(\N=P(c1ccccc1)(c1ccccc1)c1ccccc1)C(F)(F)C(F)(F)C(F)(F)C(F)(F)C(F)(F)C(F)(F)C(F)(F)F)c1ccccc1 | > 100 | > 100 µM (inactive) |  | > 100 µM (inactive) | > 100 µM (inactive) | > 100 µM (inactive) | > 100 µM (inactive) | > 100 µM (inactive) | > 100 µM (inactive) | > 100 µM (inactive) | > 100 µM (inactive) | > 100 µM (inactive) | > 100 µM (inactive) | > 100 µM (inactive) | > 100 µM (inactive) | > 100 µM (inactive) | > 100 µM (inactive) | > 100 µM (inactive) | > 100 µM (inactive) |
| Cc1cc(-c2nc3cccc(O)c3s2)ccc1N | 35 | 27.7 µM (inactive) |  | 12.5 µM (inactive) | 18.5 µM (inactive) | 24.6 µM (inactive) | 41.1 µM (inactive) | 51.4 µM (inactive) | 20.8 µM (inactive) |  | 17.6 µM (inactive) | 45.3 µM (inactive) | 28.8 µM (inactive) | 27.3 µM (inactive) | 22.3 µM (inactive) | 16.3 µM (inactive) | 39.9 µM (inactive) |  | > 100 µM (inactive) |
| C/C=C/C=C/c1nc(C#N)c(N)o1 | > 100 | 36.6 µM (inactive) |  | > 100 µM (inactive) | > 100 µM (inactive) | > 100 µM (inactive) | > 100 µM (inactive) | > 100 µM (inactive) | > 100 µM (inactive) | > 100 µM (inactive) | > 100 µM (inactive) | > 100 µM (inactive) | > 100 µM (inactive) | > 100 µM (inactive) |  | > 100 µM (inactive) | > 100 µM (inactive) | > 100 µM (inactive) | > 100 µM (inactive) |
| Cc1cc(=O)n2nc(CSc3nnc(S)s3)sc2n1 | > 100 | > 100 µM (inactive) |  | > 100 µM (inactive) | > 100 µM (inactive) | > 100 µM (inactive) | > 100 µM (inactive) | > 100 µM (inactive) | > 100 µM (inactive) | > 100 µM (inactive) | > 100 µM (inactive) | > 100 µM (inactive) | > 100 µM (inactive) | > 100 µM (inactive) | > 100 µM (inactive) | > 100 µM (inactive) | > 100 µM (inactive) | > 100 µM (inactive) | > 100 µM (inactive) |
| CN(C)c1ccc(/C=C2\Oc3cc(O)ccc3C2=O)cc1 | 44.9 | > 100 µM (inactive) |  | 80.9 µM (inactive) | 65.8 µM (inactive) | > 100 µM (inactive) | 57 µM (inactive) | > 100 µM (inactive) | > 100 µM (inactive) | > 100 µM (inactive) | > 100 µM (inactive) | > 100 µM (inactive) | 30.5 µM (inactive) | > 100 µM (inactive) | 40.5 µM (inactive) | > 100 µM (inactive) | 62.4 µM (inactive) |  | > 100 µM (inactive) |
| O=C1C=C(Br)c2c(Br)sc(Br)c21 | 5.61 | 10.9 µM (inactive) |  | 3.85 µM (inactive) | 6.76 µM (inactive) | 10.6 µM (inactive) | 13.9 µM (inactive) | 18.9 µM (inactive) | 12 µM (inactive) | 18 µM (inactive) | 18.5 µM (inactive) | 13.8 µM (inactive) | 31.6 µM (inactive) | 6.05 µM (inactive) | 5.36 µM (inactive) | 14 µM (inactive) | 12.9 µM (inactive) | 18.6 µM (inactive) | 8.18 µM (inactive) |
| CC1(O)C(=O)OC2CC([C@]3(O)CCC4[C@@H]5C[C@H]6O[C@]67[C@@H](O)C=CC(=O)[C@]7(C)C5CC[C@@]43C)C1(C)C2 (some centres not stated) | 17.9 | 20.1 µM (inactive) | 31.3 µM (inactive) |  | 6.68 µM (inactive) | 7.13 µM (inactive) | 23.5 µM (inactive) | 9.35 µM (inactive) | 11.8 µM (inactive) | 12.1 µM (inactive) | 16 µM (inactive) | 42 µM (inactive) | 34.6 µM (inactive) | 10.9 µM (inactive) | 3.52 µM (inactive) | 14.9 µM (inactive) | 16.5 µM (inactive) | 3.76 µM (inactive) | 3.63 µM (inactive) |
